# Test results published in US11415493B2, “Detection of cells in a liquid sample” (DELTA INSTRUMENTS B.V., priority 2016, dated 2022).
# Entries after “also recorded” stand apart in the source; their conditions may differ. Like-named read-outs stand apart in the source and are kept apart here.
# Assays:
# bacteria in milk samples = assay: Individual bacterial count (IBC) in milk samples with different cell-impermeant dyes, flow cytometer; assay type: cell-based
# Description: The nucleic acid dyes, Evagreen®, SYTOX® Green and Propidium iodide where tested against GelGreen™ (the reference method). […] Nucleic acid dyes Evagreen®, SYTOX® Green and propidium iodide were tested using the same staining and incubation conditions as for the reference method only differing in the type of dye comprised in the staining composition. Evagreen® was used at a concentration of 1.25 μM in the staining composition. SYTOX® Green and Propidium iodide were used at a concentration of 5 μM in the staining composition. Three different types of milk were used: Locally obtained raw bulk tank milk from a farm and dairy plant where collected at a local farmer. This milk is referred to as fresh raw milk and is not older than 24 hours. 24 hour and 48 hour old milk were obtained from a dairy plant. […] For this purpose E. coli was grown overnight (approx. 15 h) in TSB at 32° C. The dead bacterial where obtained by heating the grown E. coli at 110° C. for 10 minutes. An amount of 200 μl of E. coli (living or dead/damaged) is added to 45 ml fresh raw bulk milk. Both living and dead are from the same culture tube and exactly the same amount is put in the 45 ml Fresh raw milk. All the milk samples are kept at 4° C. until analyzed. […] Finally, the samples were analyzed on the flow cytometer and the fluorescent signals from the bacteria were detected and a count per unit volume was determined. […]
# cells = settings: cited from earlier work
# E. coli = assay: Staining E. coli culture with different nucleic acid dyes, flow cytometer counts (FL1FL2 region); assay type: cell-based, Escherichia coli
# Description: First, an experiment was performed to confirm that bacterial counts obtained on the flow cytometer using GelGreen™ did correlate with traditional plate counts. For this, the Petrifilm method was selected (Standard Methods for Examination of Dairy Products 17th Edition 2004. Edited by H. M. Wehr and J. R. Frank. American Public Health Association, 800 I Street, NW, Washington D.C. 200001. Chapter 6.040), rather than a poured agar plate method, because of ease of use. Escherichia coil (E. coli) cultures were grown at 36° C. in Trypticase Soy Broth (TSB) in a culture tube. A staining composition was prepared as follows: The nucleic acid dye GelGreen™ (from Biotium) was diluted to 1× from the 10,000× commercially available stock, into Tris-buffered saline (100 mM Trizma base, 100 mM Trizma HCl, 150 mM NaCl, pH 8.5), which was preheated to 50° C. The used dilution of 1:10,000 of the GelGreen™ is in accordance with the manufacturer's recommendation for using GelGreen™ for the purpose it was intended for, namely staining DNA in an agarose gel. This is the dilution of GelGreen™ used in all the examples herein. The E. coli culture was removed from the 36° C. incubator and a small volume was diluted 1:100 into the preheated staining composition and incubated for approximately 4.5 min at 50° C. The stained E. coli was analyzed on the flow cytometer and the FL1 (Bandpass 531 nm (519-551)) and FL2 (Long pass >550 nm) fluorescence channels were used to identify the stained bacteria (FIGS. 1A and 1C). A rectangular region was defined around the positively stained cells identified as live cells in the FL1 versus FL2 2-dimensional correlation plot (FIG. 1B). A count per mL of the E. coli was obtained from the flow cytometry analysis. The E. coli culture was then diluted in TSB to obtain 3 different concentrations (1:10, 1:100 and 1:1000, respectively). The E. coli cultures were kept at 4° C. to minimize further growth until analysis. Each dilution of E. coli was stained with the GelGreen™ reagent, analyzed on the flow cytometer and counts for each dilution were obtained. Each E. coli culture was also appropriately diluted in Butterfield's PBS and 1 mL of the appropriately diluted culture was plated on Petrifilms in duplicate. The Petrifilms were placed in a 30° C. incubator, removed after 48 hrs and the colonies on each Petrifilm were counted using an automated colony counter. An average CFU/mL for each E. coli dilution was obtained. The Log of the flow cytometer bacterial counts using GelGreen™ was plotted versus the Log CFU counts from the Petrifilm (FIG. 2).
# To show where the bacteria in the FL1 and FL2 signal plots can be expected, bacteria were first counted in the staining composition without adding any milk. A culture of E. coli were grown at 36° C. in Trypticase Soy Broth (TSB) in a culture tube. The nucleic acid dye GelGreen™ was diluted into Tris-buffered saline, at approximately pH 8.5, which was preheated to 50° C. The E. coli culture was removed from the 36° C. incubator and a small volume was diluted 1:100 into the preheated staining composition and incubated for approximately 4.5 min at 50° C. The stained E. coli was analyzed on the flow cytometer and the FL1 and FL2 fluorescence channels were used to identify the stained bacteria (FIG. 3A).
# A culture of E. coli was grown at 36° C. in Trypticase Soy Broth (TSB), stained with GelGreen™ and counted on the flow cytometer (FIG. 5) as described in example 2. The E. coli culture was then kept at 4° C. until stained with other nucleic acid dyes. The nucleic acid dyes TOTO®-1 and SYBR® Safe (both from Thermo Fisher Scientific) were selected as alternatives. […] Both dyes have similar spectral properties to GelGreen™ and were diluted in Tris-buffered saline using the same dilution factor as GelGreen™. […]
# bacteria in raw milk = assay: Initial staining of bacteria in raw milk diluted in saline buffer, flow cytometer; assay type: cell-based
# Description: During initial work, raw milk was diluted in a buffer solution and the cell permeant nucleic acid stain SYTO® 9 was used to stain the bacteria contained in the milk. A flow cytometer, equipped with a 488 nm laser as the light source, forward and right angle scatter detectors, and three fluorescence detectors, was used to detect the fluorescence from labeled bacteria. The three fluorescence detectors in the flow cytometer in that initial experiment had the following optical filters; 527 nm Bandpass (FL1), 590 nm Bandpass (FL2), and a 630 nm Longpass (FL3). The flow cytometer utilizes a system that provides volumetric measurement of the sample analyzed and yields a count per unit volume. […] The conclusion was that the background fluorescent signal from the various components in raw milk, and the non-specific binding of the dye to these components, dominated the signal such that it was impossible to detect any bacteria-related fluorescence. Additionally the large scatter signals detected in flow cytometry from the milk fat globules, casein micelles and other components in the milk, prevented the use of forward and right angle scatter in the detection of bacteria. To prevent the background signal, the inventors of the present invention made an attempt to minimize such interference. […]
compound,measurement,setting,value
CC[N+](C)(CC)CCC[n+]1c(-c2ccccc2)c2cc(N)ccc2c2ccc(N)cc21.[I-].[I-] [Propidium iodide],usefulness as alternative dye for GelGreen in the method,bacteria in milk samples; conclusion over all milk samples,does not work
same,IBC counts,"bacteria in milk samples; milk samples except milk spiked with E. coli and cooked, 68° C., 1 min, pH 10.6",Almost no IBC counts
same,cell membrane permeability,cells,only penetrates cell membranes of dead cells
CCCN1C=C/C(=C\c2sc3ccccc3[n+]2C)c2ccccc21 [SYBR® Safe],staining of E. coli,"E. coli; Tris-buffered saline pH 8.5, room temperature (23° C.)",does not need heating to stain E. coli
same,cell membrane permeability,cells; property stated for the dye,readily crosses the membrane of cells
CN1/C(=C/c2cc[n+](CCC[N+](C)(C)CCC[N+](C)(C)CCC[n+]3ccc(/C=C4\Sc5ccccc5N4C)c4ccccc43)c3ccccc23)Sc2ccccc21.[I-].[I-].[I-].[I-] [TOTO®-1],staining of E. coli,"E. coli; Tris-buffered saline pH 8.5, 50° C., approximately 4.5 min",minimal staining; also recorded: does not stain E. coli
same,cell membrane permeability,cells; property stated for the dye,cell impermeant
SYTO® 9,fluorescence signals of raw milk with spiked bacteria,bacteria in raw milk,identical to the fluorescence detected in raw milk without spiked bacteria
